Results published in patent publication US4857641A, “C.12 modified erythromycin A derivatives” (Pfizer Inc., priority 1987, dated 1989).
Values after ≈ are worked out from the molar mass of the structure shown. Read-outs that look alike come from different tables or passages of the source.

Tests used:
Test in all cases: in vitro antibacterial activity (MIC), BHI agar dilution
Type in all cases: cell-based
[1] = test system: Pat. mult.
Experimental: (§1) The compounds of the formula (3) are tested for in vitro antibacterial activity by standard methods in which the minimum inhibitory concentrations (MIC's) in mcg/ml against one or more microorganisms is measured. One such procedure is the one recommended by the International Collaborative Study on Antibiotic Sensitivity Testing (Ericcson and Sherris, Acta. Pathologica et Microbiologia Scandinav, Supp. 217, Section B: 64-68 [1971]), and employs brain heart infusion (BHI) agar and an inocula replicating device. Overnight growth tubes are diluted 100 fold for use as the standard inoculum (20,000-10,000 cells in approximately 0.002 ml. are placed on the agar surface; 20 ml. of BHI agar/dish). Twelve 2 fold dilutions of the test compound are employed, with initial concentration of the test drug being 200 mcg/ml. Single colonies are disregarded when reading plates after 18 hours at 37° C. The susceptibility (MIC) of the test organism is accepted as the lowest concentration of compound capable of producing complete inhibition of growth as judged by the naked eye.

[2] = test system: Strep. pneum.; settings: Strep. pneum. 012, 18 hours at 37° C
Experimental: as §1

[3] = test system: Neis. sic.; settings: Neis. sic. 000, 18 hours at 37° C
Experimental: as §1

[4] = test system: Strep. faec.; settings: Strep. faec. 006, 18 hours at 37° C
Experimental: as §1

[5] = test system: E. coli; settings: E. coli 470, 18 hours at 37° C
Experimental: as §1

[6] = test system: Hem. infl.
Experimental: as §1

[7] = test system: Staph. epid.; settings: Staph. epid. 111, 18 hours at 37° C
Experimental: as §1

[8] = test system: Strep. pyog.
Experimental: as §1

[9] = test system: Staph. aureus
Experimental: as §1

[10] = Staph. aureus 052, 18 hours at 37° C
[11] = Staph. aureus 110, 18 hours at 37° C
[12] = Escherichia coli, read-out: MIC
[13] = 18 h, Hem. infl. 038, 18 hours at 37° C, read-out: MIC
[14] = 18 h, Hem. infl. 042, 18 hours at 37° C, read-out: MIC
[15] = 18 h, Hem. infl. 073, 18 hours at 37° C, read-out: MIC
[16] = 18 h, Hem. infl. 078, 18 hours at 37° C, read-out: MIC
[17] = 18 h, Hem. infl. 081, 18 hours at 37° C, read-out: MIC
[18] = 18 h, Strep. pyog. 054, 18 hours at 37° C, read-out: MIC
[19] = 18 h, Strep. pyog. 203, 18 hours at 37° C, read-out: MIC
[20] = Staphylococcus aureus, Staph. aureus 005, 18 hours at 37° C, read-out: MIC

| Compound | MIC [9, 10] | MIC [9, 11] | MIC ([3]; read-out: MIC) | MIC ([4]; read-out: MIC) | MIC [5, 12] | MIC [6, 13] | MIC [6, 14] | MIC [6, 15] | MIC [6, 16] | MIC [6, 17] | MIC ([7]; read-out: MIC) | MIC [8, 18] | MIC [8, 19] | MIC [9, 20] | other results |
| --- | --- | --- | --- | --- | --- | --- | --- | --- | --- | --- | --- | --- | --- | --- | --- |
| 4"-0-Acetyl-12,12'-anhydro-9-deoxo-11-deoxy-9R,11-(thiocarbonyldioxy)erythromycin A [Compound 3a] | 50 µg/mL | 50 µg/mL |  |  |  |  |  |  |  |  |  |  |  |  | MIC ([1]; Pat. mult. 001, BHI agar, 18 hours at 37° C): 25 µg/mL; MIC [2]: 3.12 µg/mL; MIC [3]: 50 µg/mL; MIC [4]: 50 µg/mL; MIC [5]: 6.25 µg/mL; MIC ([6]; Hem. infl. 012, 18 hours at 37° C): > 50 µg/mL; MIC ([6]; Hem. infl. 038, 18 hours at 37° C): > 50 µg/mL; MIC ([6]; Hem. infl. 042, 18 hours at 37° C): 50 µg/mL; MIC ([6]; Hem. infl. 073, 18 hours at 37° C): 50 µg/mL; MIC ([6]; Hem. infl. 078, 18 hours at 37° C): 50 µg/mL; MIC ([6]; Hem. infl. 081, 18 hours at 37° C): 50 µg/mL; MIC [7]: 12.5 µg/mL; MIC ([8]; Strep. pyog. 054, 18 hours at 37° C): 50 µg/mL; MIC ([8]; Strep. pyog. 203, 18 hours at 37° C): 3.12 µg/mL; MIC ([9]; Staph. aureus 005, 18 hours at 37° C): 50 µg/mL |
| C=C1C(CC)OC(=O)C(C)C(OC2CC(C)(OC)C(OC(C)=O)C(C)O2)C(C)C(OC2OC(C)CC(N(C)C)C2O)C(C)(O)CC(C)C(O)C(C)C1O (stereo not drawn) [Compound 3b, 4"-O-Acetyl-12,12'anhydro-9-deoxo-9R-hydroxyerythromycin A] | > 50 µg/mL | > 50 µg/mL | 50 µg/mL (≈ 65.8 µM) | > 50 µg/mL | 25 µg/mL (≈ 32.9 µM) | 50 µg/mL (≈ 65.8 µM) | > 50 µg/mL | > 50 µg/mL | > 50 µg/mL | > 50 µg/mL | > 50 µg/mL | > 50 µg/mL | 3.12 µg/mL (≈ 4.11 µM) | > 50 µg/mL | MIC ([1]; 18 h): 25 µg/mL (≈ 32.9 µM) |
| CCC1OC(=O)C(C)C(OC2CC(C)(OC)C(OC(C)=O)C(C)O2)C(C)C(OC2OC(C)CC(N(C)C)C2O)C(C)(O)CC(C)C(O)C(C)C(O)C1(O)CO (stereo not drawn) [Compound 3d, 4"-O-Acetyl-9-deoxo-9R-12'-dihydroxyerythromycin A] | > 50 µg/mL | > 50 µg/mL | > 50 µg/mL | 25 µg/mL (≈ 31.5 µM) | 12.5 µg/mL (≈ 15.7 µM) | > 50 µg/mL | 50 µg/mL (≈ 63 µM) | 50 µg/mL (≈ 63 µM) | > 50 µg/mL | > 50 µg/mL | > 50 µg/mL | > 50 µg/mL | 3.12 µg/mL (≈ 3.93 µM) | > 50 µg/mL | MIC ([1]; Pat. mult. 001, BHI agar, 18 hours at 37° C, read-out: MIC): 50 µg/mL (≈ 63 µM) |
